Measured values as given in US20020137929A1, “1 - (3-heterocyclylphenyl) isothiourea, -isourea, -guanidine and -amidine herbicidal agents” (Intellectual Property Department, BASF Aktiengesellschaft, priority 1998, published 2002).

Columns and labels:
GALAP (Galium) = assay: Postemergence herbicidal evaluation; type: in vivo, Galium aparine; conditions: postemergence
Outline: (§1)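 Rate range approx. 0.0156–0.500 kg/ha. Foliar application at 40 psi to ~2-week seedlings; surfactant 0.5% TWEEN 20 in 50/50 acetone/water. Evaluation 4–5 wk post-treatment by 0–9 visual injury score, means of replicate tests.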

[1] = test system: TRZAWR (Wheat, Winter, cv Riband); assay: Postemergence herbicidal evaluation; type: in vivo, Triticum aestivum; conditions: postemergence
Outline: as §1

[2] = test system: ECHORC (Watergrass (Calif.)); assay: Postemergence weed control under flooded paddy conditions; type: in vivo, Echinochloa oryzoides; conditions: postemergence weeds, rated 3 to 4 weeks after treatment
Outline: (§2)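 Injury ratings (0–9 scale covering stand, vigor, malformation, size, chlorosis and overall appearance versus control) were made three to four weeks after treatment. Test material, about 0.0313 to 0.500 kg/ha a.i. in 50/50 v/v aqueous/acetone, was added to flood water 1.5 to 3 cm deep over 3 to 5 cm weeds and 1.5 to 2.5 leaf rice.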

[3] = test system: IPOHE (Morningglory, Ivyleaf); assay: Preemergence herbicidal evaluation; type: in vivo, Ipomoea hederacea; conditions: preemergence, rated 4-5 weeks after treatment, 0-9 scale
Outline: (§3)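 Test compound, dissolved in aqueous acetone, was sprayed over planted soil cups at an equivalent of about 0.0156 to 0.500 kg/ha; seeds had been mixed with potting soil. Greenhouse growth followed, with visual 0-9 scoring of injury at four to five weeks.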

ABUTH (Velvetleaf) = assay: Preemergence herbicidal evaluation; type: in vivo, Abutilon theophrasti; conditions: preemergence, rated 4-5 weeks after treatment, 0-9 scale
Outline: as §3

MOOVA (Monochoria) = assay: Preemergence weed control under flooded paddy conditions; type: in vivo, Monochoria vaginalis; conditions: rated 3-4 weeks after treatment
Outline: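 Silt loam, seeds in top 0.5 cm; flood held 1.5-3 cm; test cpd as acetone/water 50/50 into flood water, ~0.0313-0.500 kg/ha a.i.; greenhouse 3-4 wk; visual 0-9 score vs control.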

ECHCG (Barnyardgrass) = assay: Preemergence herbicidal evaluation; type: in vivo, Echinochloa crus-galli; conditions: preemergence, rated 4-5 weeks after treatment, 0-9 scale
Outline: as §3

ZEAMX (Corn, Field) = assay: Preemergence herbicidal evaluation; type: in vivo, Zea mays; conditions: preemergence, rated 4-5 weeks after treatment, 0-9 scale
Outline: as §3

SETVI (Foxtail, Green) [4] = assay: Postemergence herbicidal evaluation; type: in vivo, Setaria viridis; conditions: postemergence
Outline: as §1

[5] = test system: SAGPY (Arrowhead (Pygmaea)); assay: Postemergence weed control under flooded paddy conditions; type: in vivo, Sagittaria pygmaea; conditions: postemergence weeds, rated 3 to 4 weeks after treatment
Outline: as §2

[6] = test system: ECHORC (Watergrass (Calif.)); assay: Preemergence weed control under flooded paddy conditions; type: in vivo, Echinochloa oryzoides; conditions: rated 3-4 weeks after treatment
Outline: (§4)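 Visual injury scored 0-9 against control three to four weeks post-treatment, greenhouse-grown. Application: acetone/water (50/50) solutions dosed directly into flood water (1.5-3 cm over silt loam, planted top 0.5 cm), roughly 0.0313 to 0.500 kg/ha active ingredient.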

CYPIR (Rice Flatsedge) = assay: as above; type: in vivo, Cyperus iria; conditions: rated 3-4 weeks after treatment
Outline: as §4

[7] = test system: IPOHE (Morningglory, Ivyleaf); assay: Postemergence herbicidal evaluation; type: in vivo, Ipomoea hederacea; conditions: postemergence
Outline: as §1

SETVI (Foxtail, Green) [8] = assay: Preemergence herbicidal evaluation; type: in vivo, Setaria viridis; conditions: preemergence, rated 4-5 weeks after treatment, 0-9 scale
Outline: as §3

`C=CCN1C(=O)C(CC(=O)OCCF)SC1=Nc1cc(-n2c(=O)cc(C(F)(F)F)n(C)c2=O)c(F)cc1Cl` (stereo not drawn) [Compound 86, 2-Fluoroethyl 3-allyl-2-{{2-chloro-5-[3,6-dihydro-3-methyl-2,6-dioxo-4-(trifluoromethyl)-1(2H)-pyrimidinyl]-4-fluorophenyl}imino}-4-oxo-5-thiazolidineacetate] showed a GALAP herbicidal rating (GALAP (Galium); rate 0.0156 kg/ha) of 2.0, a GALAP herbicidal rating (GALAP (Galium); rate 0.0313 kg/ha) of 5.0 and a GALAP herbicidal rating (GALAP (Galium); rate 0.0625 kg/ha) of 9.0. It also gave a GALAP herbicidal rating (GALAP (Galium); rate 0.1250 kg/ha) of 9.0, a TRZAWR herbicidal rating ([1]; rate 0.0156 kg/ha) of 6.0 and a TRZAWR herbicidal rating ([1]; rate 0.0313 kg/ha) of 7.0. For the same compound, the TRZAWR herbicidal rating ([1]; rate 0.0625 kg/ha) was 7.5, the TRZAWR herbicidal rating ([1]; rate 0.1250 kg/ha) was 8.5 and the “Herbicidal rating ECHORC” value ([2]; Rate 0.0313 kg/ha) was 5.0. The “Herbicidal rating ECHORC” value ([2]; Rate 0.0625 kg/ha) was 6.0, the “Herbicidal rating ECHORC” value ([2]; Rate 0.1250 kg/ha) was 9.0 and the “Herbicidal rating ECHORC” value ([2]; Rate 0.2500 kg/ha) was 9.0. It also gave an IPOHE rating ([3]; 0.0156 kg/ha) of 0.0, an IPOHE rating ([3]; 0.0313 kg/ha) of 0.0 and an IPOHE rating ([3]; 0.0625 kg/ha) of 8.0. For the same compound, the IPOHE rating ([3]; 0.1250 kg/ha) was 9.0, the IPOHE rating ([3]; 0.2500 kg/ha) was 9.0 and the IPOHE rating ([3]; 0.5000 kg/ha) was 9.0. It also gave an ABUTH rating (ABUTH (Velvetleaf); 0.0156 kg/ha) of 9.0, an ABUTH rating (ABUTH (Velvetleaf); 0.0313 kg/ha) of 9.0 and an ABUTH rating (ABUTH (Velvetleaf); 0.0625 kg/ha) of 9.0. It also gave an ABUTH rating (ABUTH (Velvetleaf); 0.1250 kg/ha) of 9.0, an ABUTH rating (ABUTH (Velvetleaf); 0.2500 kg/ha) of 9.0 and an ABUTH rating (ABUTH (Velvetleaf); 0.5000 kg/ha) of 9.0. The “MOOVA herbicidal effect rating” value (MOOVA (Monochoria); 0.0313 kg/ha) was 9.0, the “MOOVA herbicidal effect rating” value (MOOVA (Monochoria); 0.0625 kg/ha) was 9.0 and the “MOOVA herbicidal effect rating” value (MOOVA (Monochoria); 0.1250 kg/ha) was 9.0. The “MOOVA herbicidal effect rating” value (MOOVA (Monochoria); 0.2500 kg/ha) was 9.0, the ECHCG rating (ECHCG (Barnyardgrass); 0.0156 kg/ha) was 0.0 and the ECHCG rating (ECHCG (Barnyardgrass); 0.0313 kg/ha) was 0.0. It also gave an ECHCG rating (ECHCG (Barnyardgrass); 0.0625 kg/ha) of 0.0, an ECHCG rating (ECHCG (Barnyardgrass); 0.1250 kg/ha) of 0.0 and an ECHCG rating (ECHCG (Barnyardgrass); 0.2500 kg/ha) of 0.0. It also gave an ECHCG rating (ECHCG (Barnyardgrass); 0.5000 kg/ha) of 4.0, a ZEAMX rating (ZEAMX (Corn, Field); 0.0156 kg/ha) of 0.0 and a ZEAMX rating (ZEAMX (Corn, Field); 0.0313 kg/ha) of 0.0. It also gave a ZEAMX rating (ZEAMX (Corn, Field); 0.0625 kg/ha) of 0.0, a ZEAMX rating (ZEAMX (Corn, Field); 0.1250 kg/ha) of 0.0 and a ZEAMX rating (ZEAMX (Corn, Field); 0.2500 kg/ha) of 4.0. It also gave a ZEAMX rating (ZEAMX (Corn, Field); 0.5000 kg/ha) of 9.0, an SETVI herbicidal rating (SETVI (Foxtail, Green) [4]; rate 0.0156 kg/ha) of 8.0 and an SETVI herbicidal rating (SETVI (Foxtail, Green) [4]; rate 0.0313 kg/ha) of 9.0. The SETVI herbicidal rating (SETVI (Foxtail, Green) [4]; rate 0.0625 kg/ha) was 9.0, the SETVI herbicidal rating (SETVI (Foxtail, Green) [4]; rate 0.1250 kg/ha) was 9.0 and the “Herbicidal rating SAGPY” value ([5]; Rate 0.0313 kg/ha) was 5.0. For the same compound, the “Herbicidal rating SAGPY” value ([5]; Rate 0.0625 kg/ha) was 9.0, the “Herbicidal rating SAGPY” value ([5]; Rate 0.1250 kg/ha) was 9.0 and the “Herbicidal rating SAGPY” value ([5]; Rate 0.2500 kg/ha) was 9.0. The “ECHORC herbicidal effect rating” value ([6]; 0.0313 kg/ha) was 5.0, the “ECHORC herbicidal effect rating” value ([6]; 0.0625 kg/ha) was 6.0 and the “ECHORC herbicidal effect rating” value ([6]; 0.1250 kg/ha) was 9.0. The “ECHORC herbicidal effect rating” value ([6]; 0.2500 kg/ha) was 9.0, the “CYPIR herbicidal effect rating” value (CYPIR (Rice Flatsedge); 0.0313 kg/ha) was 3.0 and the “CYPIR herbicidal effect rating” value (CYPIR (Rice Flatsedge); 0.0625 kg/ha) was 7.0. The “CYPIR herbicidal effect rating” value (CYPIR (Rice Flatsedge); 0.1250 kg/ha) was 8.0, the “CYPIR herbicidal effect rating” value (CYPIR (Rice Flatsedge); 0.2500 kg/ha) was 9.0 and the IPOHE herbicidal rating ([7]; rate 0.0156 kg/ha) was 9.0. It also gave an IPOHE herbicidal rating ([7]; rate 0.0313 kg/ha) of 9.0, an IPOHE herbicidal rating ([7]; rate 0.0625 kg/ha) of 9.0 and an IPOHE herbicidal rating ([7]; rate 0.1250 kg/ha) of 9.0. It also gave an SETVI rating (SETVI (Foxtail, Green) [8]; 0.0156 kg/ha) of 0.0, an SETVI rating (SETVI (Foxtail, Green) [8]; 0.0313 kg/ha) of 0.0 and an SETVI rating (SETVI (Foxtail, Green) [8]; 0.0625 kg/ha) of 4.0. It also gave an SETVI rating (SETVI (Foxtail, Green) [8]; 0.1250 kg/ha) of 8.0, an SETVI rating (SETVI (Foxtail, Green) [8]; 0.2500 kg/ha) of 9.0 and an SETVI rating (SETVI (Foxtail, Green) [8]; 0.5000 kg/ha) of 9.0.
